Key:
Human Factor XIIa = Human Factor XIIa (Homo sapiens (Human), UniProt P00748); assay: Determination of FXIIa inhibition (fluorogenic substrate H-DPro-Phe-Arg-AFC, IC50 assay); type: biochemical; conditions: substrate H-DPro-Phe-Arg-AFC at Km, 25° C.; class scale A-G
Procedure, shortened: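 IC50 derived from % remaining activity, taken as the linear fluorescence rate over a 5 min read at 25° C. Substrate H-DPro-Phe-Arg-AFC was used at its Km (Michaelis-Menten) with human FXIIa and serial compound dilutions, 25° C.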

Plasma Kallikrein = Plasma Kallikrein (Homo sapiens (Human), UniProt P03952); assay: Determination of related protease inhibition: Plasma Kallikrein (fluorogenic substrate at Km); type: biochemical; conditions: 25° C., read-out: IC50 (human PKal)
Procedure, shortened: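 IC50 values derive from the linear rate of fluorescence increase, normalised to uninhibited enzyme as 100% activity. Each human protease was run against its fluorogenic substrate at Km concentration with varying compound levels, with product fluorescence followed over 5 min at 25 °C.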

Chain of Human Factor XIIa (P00748 373-615): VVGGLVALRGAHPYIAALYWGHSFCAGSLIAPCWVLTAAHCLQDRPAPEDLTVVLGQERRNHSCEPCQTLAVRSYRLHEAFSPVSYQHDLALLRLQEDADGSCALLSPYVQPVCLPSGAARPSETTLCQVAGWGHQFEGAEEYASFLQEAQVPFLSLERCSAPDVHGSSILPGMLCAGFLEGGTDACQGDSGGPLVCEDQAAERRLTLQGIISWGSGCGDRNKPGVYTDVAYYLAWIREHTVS
Chain of Plasma Kallikrein (P03952 391-638): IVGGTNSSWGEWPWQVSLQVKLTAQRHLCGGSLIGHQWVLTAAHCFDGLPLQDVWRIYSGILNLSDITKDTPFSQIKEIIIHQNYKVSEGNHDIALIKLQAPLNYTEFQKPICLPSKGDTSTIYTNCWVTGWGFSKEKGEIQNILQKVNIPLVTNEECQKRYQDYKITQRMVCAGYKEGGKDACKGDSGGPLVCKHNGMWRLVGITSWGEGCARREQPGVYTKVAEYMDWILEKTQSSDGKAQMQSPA
Chain of Plasma Kallikrein (P03952 20-390 partner): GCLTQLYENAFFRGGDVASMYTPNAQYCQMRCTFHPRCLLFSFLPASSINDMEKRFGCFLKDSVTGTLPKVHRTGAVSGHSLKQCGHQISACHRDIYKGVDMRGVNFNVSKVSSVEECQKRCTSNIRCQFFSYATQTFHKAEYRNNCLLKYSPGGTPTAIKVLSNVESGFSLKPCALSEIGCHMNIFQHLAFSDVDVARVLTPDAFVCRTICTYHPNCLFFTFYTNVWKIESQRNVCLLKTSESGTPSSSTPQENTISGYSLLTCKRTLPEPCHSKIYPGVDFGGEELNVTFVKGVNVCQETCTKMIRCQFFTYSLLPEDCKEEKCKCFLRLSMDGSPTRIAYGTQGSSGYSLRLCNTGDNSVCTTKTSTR

| IC50 (Human Factor XIIa) [µM] | IC50 (Plasma Kallikrein) [µM] | Structure (SMILES) |
| --- | --- | --- |
| 1 to 3 | > 40 | Cc1cc2c(NCc3ccc(N4CCn5c(nnc5C(F)F)C4)nc3)ccnc2[nH]1 [Example 1278, N-((6-(3-(Difluoromethyl)-5,6-dihydro-[1,2,4]triazolo[4,3-a]pyrazin-7(8H)-yl)pyridin-3-yl)methyl)-2-methyl-1H-pyrrolo[2,3-b]pyridin-4-amine] |
| 1 to 3 | > 40 | Nc1ncc(Cl)c2cc(NCc3ccnc(OC4CCn5ccnc5C4)c3)ccc12 (stereo not shown) [Example 4432, 4-chloro-6-N-[(2-{5H,6H,7H,8H-imidazo[1,2-a]pyridin-7-yloxy}pyridin-4-yl)methyl]isoquinoline-1,6-diamine] |
| 1 to 3 | 10 to 40 | Nc1nccc2c(NCc3ccnc(NCCC(=O)N4CCCC4)c3)cccc12 [Example 4302, 3-[(4-{[(1-aminoisoquinolin-5-yl)amino]methyl}pyridin-2-yl)amino]-1-(pyrrolidin-1-yl)propan-1-one] |
| 10 to 40 | > 40 | Nc1ncc(Cl)c2cc(NCc3ccc(N4CCC(CC(F)F)C4)nc3)ccc12 (stereo not shown) [Example 1266, 4-chloro-N6-((6-(3-(2,2-difluoroethyl)pyrrolidin-1-yl)pyridin-3-yl)methyl)isoquinoline-1,6-diamine] |
| 0.3 to 1 | > 40 | Nc1ncc(Cl)c2cc(NCc3ccnc(OCC4CCn5c(CO)cnc5C4)c3)ccc12 (stereo not shown) [Example 4448, (7-(((4-(((1-amino-4-chloroisoquinolin-6-yl)amino)methyl)pyridin-2-yl)oxy)methyl)-5,6,7,8-tetrahydroimidazo[1,2-a]pyridin-3-yl)methanol] |
| 10 to 40 | > 40 | Nc1ncc(Cl)c2cc(NCc3ccnc(N4CCn5ccnc5C4)c3)ccc12 [Example 5437, 4-chloro-N6-((2-(5,6-dihydroimidazo[1,2-a]pyrazin-7(8H)-yl)pyridin-4-yl)methyl)isoquinoline-1,6-diamine] |
| 3 to 10 | 10 to 40 | Cc1cc(NCc2ccc(NCC3CCN(C)CC3)nc2)cc2ccncc12 [Example 1102, 8-methyl-N-((6-(((1-methylpiperidin-4-yl)methyl)amino)pyridin-3-yl)methyl)isoquinolin-6-amine] |
| 0.1 to 0.3 | 10 to 40 | Nc1ncc(Cl)c2cc(NCc3ccnc(OCC4CCn5ccnc5C4)c3)ccc12 (single isomer, unassigned) [Example 4439, (R*)-4-chloro-N6-((2-((5,6,7,8-tetrahydroimidazo[1,2-a]pyridin-7-yl)methoxy)pyridin-4-yl)methyl)isoquinoline-1,6-diamine] |
| 3 to 10 | 10 to 40 | CN1CCC(Oc2ccc(CNc3ccc4ccnc(N)c4c3)cc2)CC1 [Example 1003, N7-(4-((1-methylpiperidin-4-yl)oxy)benzyl)isoquinoline-1,7-diamine] |
| 40 to 100 | > 100 | CN1CCC(COc2cc(CNc3cnc4[nH]cc(C#N)c4c3)ccn2)CC1 [Example 4460] |
| 10 to 40 | > 40 | Nc1nccc2c(NCc3ccnc(N4CCn5ccnc5C4)c3)cccc12 [Example 5436, N5-((2-(5,6-dihydroimidazo[1,2-a]pyrazin-7(8H)-yl)pyridin-4-yl)methyl)isoquinoline-1,5-diamine] |
| 3 to 10 | > 40 | CN1CCC(CNc2ccc(CNc3cc(Cl)c4cnccc4c3)cn2)CC1 [Example 1208, 8-chloro-N-((6-(((1-methylpiperidin-4-yl)methyl)amino)pyridin-3-yl)methyl)isoquinolin-6-amine] |
| 1 to 3 | > 40 | Cn1c(COc2cc(CNc3cccc4c(N)nccc34)ccn2)nnc1C1CC1 [Example 4468, N5-((2-((5-cyclopropyl-4-methyl-4H-1,2,4-triazol-3-yl)methoxy)pyridin-4-yl)methyl)isoquinoline-1,5-diamine] |
| 1 to 3 | 3 to 10 | CN1CCC(OCc2ccc(CN(C)c3ccc4c(N)nccc4c3)cc2)CC1 [Example 2190, N6-methyl-N6-(4-(((1-methylpiperidin-4-yl)oxy)methyl)benzyl)isoquinoline-1,6-diamine] |
| 10 to 40 | > 40 | Nc1ncc(Cl)c2cc(NCc3ccc(NCc4nccn4C(F)F)nc3)ccc12 [Example 1185] |
| 40 to 100 | > 100 | CN1CCC(CNc2ccc(CNc3cc(F)c4cnccc4c3)cn2)CC1 [Example 1207, 8-fluoro-N-((6-(((1-methylpiperidin-4-yl)methyl)amino)pyridin-3-yl)methyl)isoquinolin-6-amine] |
| 3 to 10 | > 40 | CC(C)(O)[C@H]1CCN(c2ccc(CNc3ccc4c(N)ncc(Cl)c4c3)cn2)C1 [Example 1176, 2-[(3S)-1-(5-{[(1-amino-4-chloroisoquinolin-6-yl)amino]methyl}pyridin-2-yl)pyrrolidin-3-yl]propan-2-ol] |
| 3 to 10 | > 40 | Cc1cnc2[nH]c(Cl)cc2c1NCc1ccc(NCC2CCN(C)CC2)nc1 [Example 1255, 2-chloro-5-methyl-N-((6-(((1-methylpiperidin-4-yl)methyl)amino)pyridin-3-yl)methyl)-1H-pyrrolo[2,3-b]pyridin-4-amine] |
| 0.3 to 1 | > 4 | Nc1ncc(F)c2cc(NCc3ccnc(OCC4CCn5ccnc5C4)c3)ccc12 (stereo not shown) [Example 4307, 4-fluoro-6-N-[(2-{5H,6H,7H,8H-imidazo[1,2-a]pyridin-7-ylmethoxy}pyridin-4-yl)methyl]isoquinoline-1,6-diamine] |
| 1 to 3 | > 40 | Nc1ncc(Cl)c2cc(NCc3ccnc(OCc4ccn5ccnc5c4)c3)ccc12 [Example 4433, 4-chloro-6-N-[(2-{imidazo[1,2-a]pyridin-7-ylmethoxy}pyridin-4-yl)methyl]isoquinoline-1,6-diamine] |
| 3 to 10 | > 40 | Cc1cc(NCc2ccc(NCC3CCN(C)CC3)nc2)c2cc[nH]c2n1 [Example 1246, 6-methyl-N-((6-(((1-methylpiperidin-4-yl)methyl)amino)pyridin-3-yl)methyl)-1H-pyrrolo[2,3-b]pyridin-4-amine] |
| 10 to 40 | > 100 | CN1CCC(CNc2ccc(CNc3ccc4cccnc4c3)cn2)CC1 [Example 1184, N-((6-(((1-methylpiperidin-4-yl)methyl)amino)pyridin-3-yl)methyl)quinolin-7-amine] |
| 40 to 100 | > 40 | CN1CCC(CNc2ccc(CNc3ccc4c[nH]c(=O)cc4c3)cn2)CC1 [Example 1201, 6-(((6-(((1-methylpiperidin-4-yl)methyl)amino)pyridin-3-yl)methyl)amino)isoquinolin-3(2H)-one] |
| 0.1 to 0.3 | > 4 | Nc1nccc2c(NCc3cnc(OCC4CCn5ccnc5C4)nc3)cccc12 (stereo not shown) [Example 1042, 5-N-[(2-{5H,6H,7H,8H-imidazo[1,2-a]pyridin-7-ylmethoxy}pyrimidin-5-yl)methyl]isoquinoline-1,5-diamine] |
| 3 to 10 | 10 to 40 | CN1CCC(OCc2ccc(COc3ccc4c(N)nccc4c3)cc2)CC1 [Example 1011, 6-((4-(((1-Methylpiperidin-4-yl)oxy)methyl)benzyl)oxy)isoquinolin-1-amine] |
| 10 to 40 | > 40 | Cc1n[nH]c2c1CCC2Nc1ccc(CNc2ccc3c(N)ncc(Cl)c3c2)cn1 (stereo not shown) [Example 1118, 4-chloro-6-N-{[6-({3-methyl-1H,4H,5H,6H-cyclopenta[c]pyrazol-6-yl}amino)pyridin-3-yl]methyl}isoquinoline-1,6-diamine] |

— US20240059691A1 (KALVISTA PHARMACEUTICALS LIMITED, priority 2020, published 2024)
